# Test results reported in the supplement of paper PMC10307832.
# How the values were obtained:
# Assay in all cases: relative viability (nuclei count vs DMSO), 5 days (fraction); higher = more cells survive
# Sulindac + Linsitinib = compound: CC1=C(CC(=O)O)c2cc(F)ccc2/C1=C\c1ccc([S+](C)[O-])cc1 [Sulindac] + C[C@]1(O)C[C@@H](c2nc(-c3ccc4ccc(-c5ccccc5)nc4c3)c3c(N)nccn32)C1 [Linsitinib] (partner 1 µM)
# In short: (§1)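 Each reported value is a median over duplicate plates. It expresses relative viability: treated-well nuclei count divided by vehicle-well nuclei count. Lung cancer cell lines in 1536-well plates were dosed by pin tool a day after seeding, alone with one drug or with a fixed anchor-drug dose plus five library-drug doses (not always all listed) in √10 steps, and nuclei were counted after 5 days.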
# [1] = compound: CN[C@@H]1C[C@H]2O[C@@](C)([C@@H]1OC)n1c3ccccc3c3c4c(c5c6ccccc6n2c5c31)C(=O)NC4 [Staurosporine] + CC1(C)CCC(c2ccc(Cl)cc2)=C(CN2CCN(c3ccc(C(=O)NS(=O)(=O)c4ccc(N[C@H](CCN5CCOCC5)CSc5ccccc5)c(S(=O)(=O)C(F)(F)F)c4)cc3)CC2)C1 [Navitoclax] (partner 0.5 µM)
# In short: as §1
# Staurosporine + OSI-027 = compound: CN[C@@H]1C[C@H]2O[C@@](C)([C@@H]1OC)n1c3ccccc3c3c4c(c5c6ccccc6n2c5c31)C(=O)NC4 [Staurosporine] + COc1cccc2cc(-c3nc([C@H]4CC[C@H](C(=O)O)CC4)n4ncnc(N)c34)[nH]c12 [OSI-027] (partner 0.5 µM)
# In short: as §1
# [2] = compound: CN[C@@H]1C[C@H]2O[C@@](C)([C@@H]1OC)n1c3ccccc3c3c4c(c5c6ccccc6n2c5c31)C(=O)NC4 [Staurosporine] + C[C@@H](Oc1cc(-c2cnn(C3CCNCC3)c2)cnc1N)c1c(Cl)ccc(F)c1Cl [Crizotinib] (partner 1 µM)
# In short: as §1
cell line,measurement,setting,value
UMC-11,relative viability,Sulindac + Linsitinib; first compound 0.08 µM,1.27
same,relative viability,Sulindac + Linsitinib; first compound 0.253 µM,1.02
same,relative viability,Sulindac + Linsitinib; first compound 0.8 µM,0.815
same,relative viability,Sulindac + Linsitinib; first compound 2.53 µM,1.06
same,relative viability,Sulindac + Linsitinib; first compound 8 µM,1.07
same,relative viability,[1]; first compound 0.005 µM,0.265
same,relative viability,[1]; first compound 0.01581 µM,0.158
same,relative viability,[1]; first compound 0.05 µM,0.141
same,relative viability,[1]; first compound 0.1581 µM,0.106
same,relative viability,[1]; first compound 0.5 µM,0.103
same,relative viability,Staurosporine + OSI-027; first compound 0.005 µM,0.5
same,relative viability,Staurosporine + OSI-027; first compound 0.01581 µM,0.151
same,relative viability,Staurosporine + OSI-027; first compound 0.05 µM,0.138
same,relative viability,Staurosporine + OSI-027; first compound 0.1581 µM,0.133
same,relative viability,Staurosporine + OSI-027; first compound 0.5 µM,0.116
same,relative viability,[2]; first compound 0.005 µM,0.544
same,relative viability,[2]; first compound 0.01581 µM,0.406
same,relative viability,[2]; first compound 0.05 µM,0.207
same,relative viability,[2]; first compound 0.1581 µM,0.0703
same,relative viability,[2]; first compound 0.5 µM,0.0402
